Assay results as given in US6878732B2, “NK1 antagonists” (Schering Corporation, priority 2002, dated 2005).
Where “and” joins values, the source holds several entries; their conditions need not be identical. Equal values may be shown once.

Biological target: NK1 receptor (Homo sapiens, UniProt P25103)
Assay: NK1 receptor binding: inhibition of Substance P binding, Ki by the Chang-Prusoff equation
Conditions: inhibition constant from the concentration giving 50% inhibition of binding; procedure of Duffy et al.
Description: The percent of MSB is defined by the following equation, wherein “dpm” represents “disintegrations per minute”: [formula]

Sequence of NK1 receptor (P25103 whole entry, species assumed): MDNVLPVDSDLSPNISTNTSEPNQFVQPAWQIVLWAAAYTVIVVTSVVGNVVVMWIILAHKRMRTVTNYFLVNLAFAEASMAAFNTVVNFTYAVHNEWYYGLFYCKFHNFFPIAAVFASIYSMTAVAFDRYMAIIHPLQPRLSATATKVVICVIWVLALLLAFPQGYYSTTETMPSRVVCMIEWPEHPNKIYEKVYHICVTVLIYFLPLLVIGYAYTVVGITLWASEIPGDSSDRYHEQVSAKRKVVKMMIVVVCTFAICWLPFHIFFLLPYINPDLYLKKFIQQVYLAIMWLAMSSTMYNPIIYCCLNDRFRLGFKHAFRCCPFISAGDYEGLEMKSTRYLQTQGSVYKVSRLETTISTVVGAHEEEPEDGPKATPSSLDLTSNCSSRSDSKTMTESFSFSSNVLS

Ki | Compound
130 to 1780 pM and 200 pM | C[C@@H](OC[C@]1(c2ccccc2)C[C@]2(C1)NCNC2=O)c1cc(C(F)(F)F)cc(C(F)(F)F)c1 [Example 49]
130 to 1780 pM | C[C@@H](OC[C@]1(c2ccccc2)C[C@@]2(C1)NC(=O)NC2=O)c1cc(C(F)(F)F)cc(C(F)(F)F)c1 [Example 11b]
130 to 1780 pM | CNC(=O)[C@]1(N)C[C@@](CO[C@H](C)c2cc(C(F)(F)F)cc(C(F)(F)F)c2)(c2ccccc2)C1 [Example 27]

The next lines start with the compound.

Compound | Ki
C[C@@H](OC[C@]1(c2ccccc2)C[C@](N)(C(N)=O)C1)c1cc(C(F)(F)F)cc(C(F)(F)F)c1 [Example 28] | 130 to 1780 pM
C[C@@H](OC[C@]1(c2ccccc2)C[C@]2(C1)N=CNC2=O)c1cc(C(F)(F)F)cc(C(F)(F)F)c1 [Example 46] | 130 to 1780 pM
C[C@@H](OC[C@]1(c2ccccc2)C[C@]2(C1)NC(=O)NC2=O)c1cc(C(F)(F)F)cc(C(F)(F)F)c1 [Example 11a] | 130 to 1780 pM
C[C@@H](OC[C@]1(c2ccccc2)C[C@@]2(CNC(=O)N2)C1)c1cc(C(F)(F)F)cc(C(F)(F)F)c1 [Example 12b] | 130 to 1780 pM
